Target: T1, CB1 receptor (Homo sapiens, UniProt P21554)
T1 construct: expressed in transfected cells; host or cells: HEK293 cells (ATCC), calcium phosphate transfection
Test: cAMP accumulation in HEK293 cells transfected with AC5, D1AR, CB1R
Type: cell-based
Description: HEK293 cells were obtained from American Type Culture Collection (Manassas, Va.). Cells were cultured in 225 mL flasks containing 39 mL of MEM containing 10% fetal bovine serum, penicillin (50 μg/mL), streptomycin (50 μg/mL), and neomycin (100 μg/mL). The flasks were maintained in a humidified atmosphere of 95% air and 5% CO2 at about 37° C. Transfection was performed by the method of DNA precipitation with calcium phosphate 1 day after HEK 293 cells were transferred to small flasks (75 mL) at the density of approximately 60 to 80% confluence. Plasmid DNA containing AC5 or AC7 cDNA (11.5 μg), plasmid DNA carrying the human D1A dopamine receptor cDNA (3 μg) and CB1 receptor cDNA (3 μg), and pCMS-EGFP (1 μg) were used for each small flask, which also contained 13 mL of the culture medium. The amount of DNA per flask was adjusted to a total of 26 μg using vector DNA. Transfection efficiency was routinely monitored by observing the expression of enhanced green fluorescent protein (GFP) by an epifluorescence microscope equipped with a filter set (excitation, 480/40 nm; emission, 535/50 nm) and a dichroic mirror (T89002bs; Chroma Technology, Rockingham, Vt.). After transfection, cells were harvested and transferred into 24-well culture plates. The transfected cells were cultured for 1 to 2 days before the cAMP accumulation experiments were carried out.
After labeling and intracellular ATP pool with 3.0 μCi/mL of [2,8-^3H]adenine, cells were incubated in DMEM (0.5 mL/well) without phenol red, buffered to pH 7.1 with 20 mM of 4-(2-hydroxyethyl)-1-piperazineethanesulfonic acid (HEPES) for 30 minutes at 37° C.
To determine the effect of the DCUK-OEt or other compounds on the function of the CB1 receptor, the cells were treated with the phosphodiesterase inhibitor, IBMX (500 μM), for 10 minutes at 37° C., followed by the addition of D1A receptor agonist, dopamine (DA) (1 μM), in the presence of a known CB1 agonist or agonist, plus a CB1 antagonist for 5 minutes. The following agonist and antagonist were used: CB1 receptor agonist, ACEA (10 μM); CB1 receptor antagonist, AM251 (10 μM). In additional reactions, the addition of DA was accompanied by addition of DCUK-OEt (10 μM) or DCUK-OEt together with AM251 (10 μM). In a final set of reactions DCUK-OEt was added with ACEA (10 μM), to assess whether DCUK-OEt acted like a CB1 receptor antagonist. The reactions were terminated by adding 50 μL of 100% (w/v) tricholoroacetic acid. ATP and cAMP were separated through Dowex 50 and neutral alumina columns as is known in the art, and quantified by liquid scintillation counting. [α-^32P]ATP and 8-[^14C]cAMP were added as internal standards to monitor the recovery of ATP and cAMP through column chromatography. Conversion of [^3H] ATP into [^3H]cAMP was calculated as follows: [^3H]cAMP (%)=[^3H]cAMP (cpm)/([^3H]ATP (cpm)+[^3H]cAMP (cpm))·100. [^3H]cAMP (%) values obtained from cells which underwent only the 10-minute IBMX incubation period before the addition of trichloroacetic acid, were used as blanks and these values were subtracted from the values obtained from cells which underwent the 1-minute incubation period with DA in the presence or absence of other agonists/antagonists. Each condition was assayed in triplicate and the whole experimental procedure was repeated 4 times. The ratio of cAMP accumulation was calculated for all treatment groups versus DA treatment group (100%) and the values were averaged among the four batches of experiments.

T1 sequence (P21554 whole entry): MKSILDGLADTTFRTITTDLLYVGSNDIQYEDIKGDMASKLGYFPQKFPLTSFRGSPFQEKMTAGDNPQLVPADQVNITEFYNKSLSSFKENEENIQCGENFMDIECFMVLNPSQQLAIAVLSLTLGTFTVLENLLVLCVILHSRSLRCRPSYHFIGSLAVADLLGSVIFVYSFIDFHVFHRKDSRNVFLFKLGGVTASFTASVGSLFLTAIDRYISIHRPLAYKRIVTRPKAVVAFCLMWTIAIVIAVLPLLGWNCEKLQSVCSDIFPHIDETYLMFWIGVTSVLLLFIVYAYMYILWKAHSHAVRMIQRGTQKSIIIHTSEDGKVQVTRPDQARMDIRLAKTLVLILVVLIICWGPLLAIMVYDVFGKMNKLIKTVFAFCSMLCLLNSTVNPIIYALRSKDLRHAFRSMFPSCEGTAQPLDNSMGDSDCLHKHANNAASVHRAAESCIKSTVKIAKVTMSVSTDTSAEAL

CCOC(=O)c1cc(NC(=O)N(c2ccccc2)c2ccccc2)c2c(Cl)cc(Cl)cc2n1 [DCUK-OEt, N,N-diphenyl-4-ureido-5,7-dichloro-2-carboxy quinoline ethyl ester] was tested, and the “effect on DA stimulated cAMP production with AM251 added” value (AM251 10 μM) was “reversed by AM251”, the “reversal of the effects of ACEA” value (added with ACEA 10 μM) was “did not reverse the effects of ACEA” and the “effect on DA stimulated cAMP production” value (dopamine 1 μM, compound 10 μM) was “reduced DA stimulated cAMP production”.
